Source: patent US8664391B2, “Amide compounds as boosters of antivirals” (Janssen R&D Ireland Ltd, priority 2008, dated 2014)
Where two headings read alike, the source gives them in different places.

Assays:
CYP2C19 = molecular target: T1, CYP2C19 (Homo sapiens, UniProt P33261); assay: CYP450 inhibition, fluorescent substrate assay, CYP2C19; type: biochemical; details: E. coli expressed CYP2C19, pH 7.4, probe CEC (25 μM), 10 μM test compound, substrate CEC 25 μM, read-out: 2C19-CEC % inh.
T1 construct: host or cells: E. coli
Summary of the method: (§1)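 Test compounds were preincubated for 5 min at 37° C with CYP P450 enzyme and an NADPH generating system before phosphate-buffered (pH 7.4) fluorogenic substrate was added. Reactions were stopped with acetonitrile and the fluorescent product was read on a plate reader. Inhibition appears as loss of fluorescent signal.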

[1] = tested on: wild-type HIV-1 IIIB strain; assay: Antiviral activity in MT4 LTR-EGFP cellular assay; type: cell-based; details: Human immunodeficiency virus 1, 72 h; wild-type HIV-1 IIIB, MT4 LTR-EGFP cells, three days after infection; pEC50 = -log10(EC50); read-out: Antiviral Activity IIIB pEC50 (converted)
[2] = Cytotoxicity in mock-infected MT4 CMV-EGFP cells; type: cell-based; details: human, pCC50 = -log10(CC50), read-out: Toxicity MT4 pCC50 (converted)
CYP3A4 = molecular target: T2, CYP3A4 (Homo sapiens, UniProt P08684); assay: CYP450 inhibition, fluorescent substrate assay, CYP3A4; type: biochemical; details: 10 μM test compound
T2 construct: host or cells: E. coli
Summary of the method: as §1

CYP2C9 = CYP2C9 (Homo sapiens, UniProt P11712); assay: CYP450 inhibition, fluorescent substrate assay, CYP2C9; type: biochemical; details: pH 7.4
Summary of the method: as §1

in vitro = in vitro ADME, human; details: human, pH 7.4
CYP1A2 = molecular target: T3, CYP1A2 (Homo sapiens, UniProt P05177); assay: CYP450 inhibition, fluorescent substrate assay, CYP1A2; type: biochemical; details: E. coli expressed CYP1A2, pH 7.4, probe CEC (5 μM), 10 μM test compound, substrate CEC 5 μM, read-out: 1A2-CEC % inh.
T3 construct: host or cells: E. coli
T3 sequence (P05177 1-516): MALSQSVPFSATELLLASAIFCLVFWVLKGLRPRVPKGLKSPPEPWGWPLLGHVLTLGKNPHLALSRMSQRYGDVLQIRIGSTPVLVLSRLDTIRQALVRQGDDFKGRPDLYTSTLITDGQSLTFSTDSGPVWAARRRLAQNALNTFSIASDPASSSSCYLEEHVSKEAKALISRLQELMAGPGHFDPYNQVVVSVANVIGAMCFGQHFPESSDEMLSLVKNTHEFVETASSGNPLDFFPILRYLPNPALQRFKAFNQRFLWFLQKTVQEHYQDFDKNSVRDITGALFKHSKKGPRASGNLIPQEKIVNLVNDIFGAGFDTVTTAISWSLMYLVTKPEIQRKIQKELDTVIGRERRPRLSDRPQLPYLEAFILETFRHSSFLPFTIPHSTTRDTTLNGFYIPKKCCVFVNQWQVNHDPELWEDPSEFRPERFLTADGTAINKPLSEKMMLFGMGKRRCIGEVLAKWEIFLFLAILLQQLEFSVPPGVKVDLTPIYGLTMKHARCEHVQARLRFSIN
Summary of the method: as §1

CYP2D6 = molecular target: T4, CYP2D6 (Homo sapiens, UniProt P10635); assay: CYP450 inhibition, fluorescent substrate assay, CYP2D6; type: biochemical; details: E. coli expressed CYP2D6, pH 7.4, probe AMMC (3 μM), 10 μM test compound, substrate AMMC 3 μM, read-out: 2D6-AMMC % inh.
T4 construct: host or cells: E. coli
Summary of the method: as §1

T2 sequence (P08684 whole entry): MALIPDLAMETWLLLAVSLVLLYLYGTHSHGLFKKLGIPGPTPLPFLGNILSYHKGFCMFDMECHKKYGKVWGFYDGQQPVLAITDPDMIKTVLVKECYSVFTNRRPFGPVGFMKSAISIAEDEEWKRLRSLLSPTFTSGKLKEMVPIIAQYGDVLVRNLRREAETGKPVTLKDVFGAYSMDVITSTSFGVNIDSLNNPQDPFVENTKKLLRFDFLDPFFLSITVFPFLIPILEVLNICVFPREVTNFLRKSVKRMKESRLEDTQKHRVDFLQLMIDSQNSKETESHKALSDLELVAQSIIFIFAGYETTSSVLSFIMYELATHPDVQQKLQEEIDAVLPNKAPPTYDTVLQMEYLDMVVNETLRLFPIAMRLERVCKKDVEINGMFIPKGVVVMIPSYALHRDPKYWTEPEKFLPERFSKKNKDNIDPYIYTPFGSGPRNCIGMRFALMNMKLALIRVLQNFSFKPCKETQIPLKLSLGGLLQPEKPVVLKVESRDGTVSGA
T1 sequence (P33261 whole entry): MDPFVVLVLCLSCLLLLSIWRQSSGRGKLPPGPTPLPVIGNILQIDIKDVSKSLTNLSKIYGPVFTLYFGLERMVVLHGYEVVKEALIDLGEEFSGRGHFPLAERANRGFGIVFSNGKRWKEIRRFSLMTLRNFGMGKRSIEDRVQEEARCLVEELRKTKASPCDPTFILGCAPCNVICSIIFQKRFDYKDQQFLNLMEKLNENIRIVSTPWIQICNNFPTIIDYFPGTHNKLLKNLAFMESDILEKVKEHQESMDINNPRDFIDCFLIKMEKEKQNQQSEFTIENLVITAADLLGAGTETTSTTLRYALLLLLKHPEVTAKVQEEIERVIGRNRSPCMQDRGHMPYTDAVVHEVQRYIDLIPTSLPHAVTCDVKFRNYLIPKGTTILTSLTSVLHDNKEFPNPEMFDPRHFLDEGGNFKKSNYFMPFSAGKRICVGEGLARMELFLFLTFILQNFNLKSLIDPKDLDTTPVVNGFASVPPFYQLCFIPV
Chain of CYP2C9 (P11712 whole entry): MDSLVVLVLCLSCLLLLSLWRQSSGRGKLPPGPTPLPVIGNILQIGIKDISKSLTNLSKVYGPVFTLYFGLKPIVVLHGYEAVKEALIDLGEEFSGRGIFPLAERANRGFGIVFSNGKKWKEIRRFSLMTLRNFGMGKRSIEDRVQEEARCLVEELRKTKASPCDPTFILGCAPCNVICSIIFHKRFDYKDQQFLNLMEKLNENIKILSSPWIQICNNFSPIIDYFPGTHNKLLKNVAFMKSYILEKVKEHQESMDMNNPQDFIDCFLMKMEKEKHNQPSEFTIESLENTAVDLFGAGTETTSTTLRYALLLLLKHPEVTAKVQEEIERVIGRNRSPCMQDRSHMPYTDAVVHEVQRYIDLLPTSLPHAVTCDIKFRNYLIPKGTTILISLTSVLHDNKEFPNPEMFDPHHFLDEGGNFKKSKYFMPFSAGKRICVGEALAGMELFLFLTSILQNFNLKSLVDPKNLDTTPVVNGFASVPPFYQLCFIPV
T4 sequence (P10635 whole entry): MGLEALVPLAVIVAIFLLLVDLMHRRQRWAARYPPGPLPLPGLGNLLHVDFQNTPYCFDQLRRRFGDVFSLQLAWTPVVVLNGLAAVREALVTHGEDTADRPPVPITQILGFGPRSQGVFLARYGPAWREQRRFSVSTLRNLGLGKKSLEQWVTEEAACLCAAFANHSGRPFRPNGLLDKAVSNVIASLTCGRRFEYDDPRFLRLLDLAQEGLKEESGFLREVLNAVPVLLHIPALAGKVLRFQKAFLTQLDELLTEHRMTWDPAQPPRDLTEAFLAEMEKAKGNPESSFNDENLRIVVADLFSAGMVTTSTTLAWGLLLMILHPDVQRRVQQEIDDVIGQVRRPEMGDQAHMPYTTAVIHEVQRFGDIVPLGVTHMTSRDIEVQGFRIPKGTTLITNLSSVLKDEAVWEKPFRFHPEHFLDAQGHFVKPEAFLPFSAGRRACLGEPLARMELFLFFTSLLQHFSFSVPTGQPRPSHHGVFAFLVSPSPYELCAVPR

O=C(N[C@@H](Cc1ccccc1)[C@H](O)CN(CC1CCCCC1)C(=O)c1ccncc1)OCc1cncs1 [Compound C27] showed an inhibition at 30 min, 10 μM (CYP2C19) of 96%, an EC50 [1] of 74.1 µM and a CC50 at 3 days [2] of 83.2 µM. For the same compound, the inhibition at 30 min, 10 μM (CYP3A4; E. coli expressed CYP3A4, pH 7.4, probe BFC (150 μM), substrate BFC 150 μM, read-out: 3A4-BFC % inh.) was 101%, the inhibition at 30 min, 10 μM (CYP3A4; E. coli expressed CYP3A4, pH 7.4, probe BQ (60 μM), substrate BQ 60 μM, read-out: 3A4-BQ % inh.) was 81% and the inhibition at 10 min, 10 μM (CYP3A4; E. coli expressed CYP3A4, pH 7.4, probe DBF (1 μM), substrate DBF 1 μM, 10 min, read-out: 3A4-DBF % inh.) was 90%. It also gave an inhibition at 30 min, 10 μM (CYP2C9) of 84%, a recovery at 15 min, 5 μM (in vitro) of 98% and an inhibition at 15 min, 10 μM (CYP1A2) of 10%. For the same compound, the inhibition at 45 min, 10 μM (CYP2D6) was 86%.
